pIC50: −log10 of the molar value.
Target: PRMT5/MEP50 (Homo sapiens (Human), UniProt O14744)
Assay: PRMT5 Biochemical Assay (PRMT5/MEP50 enzyme assay on peptide substrate, 3H-SAM Flashplate)
Settings: PRMT5/MEP50 4 nM, 3H-SAM 75 nM, peptide 40 nM
Text: General Materials. S-adenosylmethionine (SAM), S-adenosylhomocysteine (SAH), bicine, KCl, Tween20, dimethylsulfoxide (DMSO), bovine skin gelatin (BSG), and Tris(2-carboxyethyl)phosphine hydrochloride solution (TCEP) were purchased from Sigma-Aldrich at the highest level of purity possible. ^3H-SAM was purchase from American Radiolabeled Chemicals with a specific activity of 80 Ci/mmol. 384-well streptavidin Flashplates were purchased from PerkinElmer.
Substrates. Peptide representative of human histone H4 residues 1-15 was synthesized with a C-terminal linker-affinity tag motif and a C-terminal amide cap by 21st Century Biochemicals. […] The sequence was Ac-[…][K-Biot]-amide (SEQ ID NO.:3).
Full-length human MEP50 (NM_024102) clone was amplified from a human testis cDNA library incorporating a 5′ sequence encoding a 6-histidine tag (MHHHHHH) (SEQ ID NO.:5) fused directly to Arg 2 of MEP50. The amplified genes were sublconed into pENTR/D/TEV (Life Technologies) and subsequently transferred by Gateway™ attL×attR recombination to pDEST8 baculvirus expression vector (Life Technologies).
Protein Expression. Recombinant baculovirus and Baculovirus-Infected Insect Cells (BIIC) were generated according to Bac-to-Bac kit instructions (Life Technologies) and Wasilko, 2006, respectively. Protein over-expression was accomplished by infecting exponentially growing Spodoptera frugiperda (SF9) cell culture at 1.2×10^6 cell/ml with a 5000 fold dilution of BIIC stock. Infections were carried out at 27° C. for 72 hours, harvested by centrifugation, and stored at −80° C. for purification.
Protein Purification. […] Flag-PRMT5/6His-MeP50 was eluted with 300 mM Imidazole in the same buffer. […] Reference: Wasilko, D. J. and S. E. Lee: “TIPS: titerless infected-cells preservation and scale-up” Bioprocess J., 5 (2006), pp. 29-32.
General Procedure for PRMT5/MEP50 Enzyme Assays on Peptide Substrates.
The assays were all performed in a buffer consisting of 20 mM Bicine (pH=7.6), 1 mM TCEP, 0.005% BSG, and 0.002% Tween20, prepared on the day of use. Compounds in 100% DMSO (1 ul) were spotted into a polypropylene 384-well V-bottom plates (Greiner) using a Platemate Plus outfitted with a 384-channel head (Thermo Scientific). DMSO (1 ul) was added to Columns 11, 12, 23, 24, rows A-H for the maximum signal control and 1 ul of SAH, a known product and inhibitor of PRMT5/MEP50, was added to columns 11, 12, 23, 24, rows I-P for the minimum signal control. A cocktail (40 ul) containing the PRMT5/MEP50 enzyme and the peptide was added by Multidrop Combi (Thermo-Fisher). The compounds were allowed to incubate with PRMT5/MEP50 for 30 min at 25 degrees Celsius, then a cocktail (10 ul) containing ^3H-SAM was added to initiate the reaction (final volume=51 ul). The final concentrations of the components were as follows: PRMT5/MEP50 was 4 nM, ^3H-SAM was 75 nM, peptide was 40 nM, SAH in the minimum signal control wells was 100 uM, and the DMSO concentration was 1%. The assays were stopped by the addition of non-radioactive SAM (10 ul) to a final concentration of 600 uM, which dilutes the ^3H-SAM to a level where its incorporation into the peptide substrate is no longer detectable. 50 ul of the reaction in the 384-well polypropylene plate was then transferred to a 384-well Flashplate and the biotinylated peptides were allowed to bind to the streptavidin surface for at least 1 hour before being washed three times with 0.1% Tween20 in a Biotek ELx405 plate washer. The plates were then read in a PerkinElmer TopCount plate reader to measure the quantity of ^3H-labeled peptide bound to the Flashplate surface, measured as disintegrations per minute (dpm) or alternatively, referred to as counts per minute (cpm).
[formula] Where dpm=disintegrations per minute, cmpd=signal in assay well, and min and max are the respective minimum and maximum signal controls.

PRMT5/MEP50, sequence (O14744 other isoform, or with tags, fused parts or gaps): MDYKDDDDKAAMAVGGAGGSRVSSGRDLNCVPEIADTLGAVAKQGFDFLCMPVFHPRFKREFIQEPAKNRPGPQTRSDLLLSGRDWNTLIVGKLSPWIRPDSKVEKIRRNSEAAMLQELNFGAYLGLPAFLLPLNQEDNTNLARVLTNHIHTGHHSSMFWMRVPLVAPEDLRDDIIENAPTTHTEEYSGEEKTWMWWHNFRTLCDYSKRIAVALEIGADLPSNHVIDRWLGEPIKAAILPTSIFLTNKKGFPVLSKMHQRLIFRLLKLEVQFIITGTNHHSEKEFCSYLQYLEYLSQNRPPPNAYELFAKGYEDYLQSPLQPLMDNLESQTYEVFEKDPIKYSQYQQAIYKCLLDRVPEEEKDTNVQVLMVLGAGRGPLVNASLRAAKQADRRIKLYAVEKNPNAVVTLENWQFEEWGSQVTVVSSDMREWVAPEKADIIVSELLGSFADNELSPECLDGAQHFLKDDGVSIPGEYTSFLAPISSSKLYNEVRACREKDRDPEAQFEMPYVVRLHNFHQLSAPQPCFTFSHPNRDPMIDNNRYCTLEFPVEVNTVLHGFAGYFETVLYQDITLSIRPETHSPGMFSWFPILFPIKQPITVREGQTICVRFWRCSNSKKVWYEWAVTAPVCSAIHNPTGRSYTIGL
PRMT5/MEP50, sequence (Q9BQA1 other isoform, or with tags, fused parts or gaps partner): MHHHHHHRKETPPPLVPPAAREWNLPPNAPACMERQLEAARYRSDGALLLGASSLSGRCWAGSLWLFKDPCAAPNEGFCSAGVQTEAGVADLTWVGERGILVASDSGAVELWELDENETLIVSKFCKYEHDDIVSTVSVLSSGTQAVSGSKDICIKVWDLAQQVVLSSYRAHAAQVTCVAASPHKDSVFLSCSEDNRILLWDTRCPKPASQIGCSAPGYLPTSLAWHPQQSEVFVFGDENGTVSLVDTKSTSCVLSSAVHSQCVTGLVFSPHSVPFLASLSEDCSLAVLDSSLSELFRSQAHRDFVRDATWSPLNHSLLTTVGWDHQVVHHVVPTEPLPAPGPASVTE

Structure (SMILES)	pIC50
CN(C)C(=O)c1ccccc1OCC(=O)NCC(O)CN1CCc2ccccc2C1 (stereo not drawn) [Compound 113]	6.00 to 7.00
CC(Oc1ccccc1S(C)(=O)=O)C(=O)NCC(O)CN1CCc2ccccc2C1 (stereo not drawn) [Compound 114]	6.00 to 7.00
O=C(COc1ccccc1-c1c[nH]cn1)NCC(O)CN1CCc2ccccc2C1 (stereo not drawn) [Compound 115]	4.30 to 5.00
O=C(COc1ccccc1C1CCNC1)NCC(O)CN1CCc2ccccc2C1 (stereo not drawn) [Compound 116]	5.00 to 6.00
Cn1cc2c(OCC(=O)NCC(O)CN3CCc4ccccc4C3)cccc2n1 (stereo not drawn) [Compound 118]	6.00 to 7.00
CN1CCc2cccc(OCC(=O)NCC(O)CN3CCc4ccccc4C3)c2C1 (stereo not drawn) [Compound 120]	6.00 to 7.00
O=C(COc1cccc(NC2CCOCC2)n1)NCC(O)CN1CCc2ccccc2C1 (stereo not drawn) [Compound 121]	5.00 to 6.00
CC(=O)N1CCN(S(=O)(=O)c2ccccc2OCC(=O)NCC(O)CN2CCc3ccccc3C2)CC1 (stereo not drawn) [Compound 122]	6.00 to 7.00
O=C(COc1cccc2c1OCC(=O)N2)NCC(O)CN1CCc2ccccc2C1 (stereo not drawn) [Compound 124]	5.00 to 6.00
O=C(COc1cccc2[nH]c(=O)cnc12)NCC(O)CN1CCc2ccccc2C1 (stereo not drawn) [Compound 125]	5.00 to 6.00
CN(C)c1ncccc1OCC(=O)NCC(O)CN1CCc2ccccc2C1 (stereo not drawn) [Compound 127]	6.00 to 7.00
O=C(COc1cccc2ncc(=O)[nH]c12)NCC(O)CN1CCc2ccccc2C1 (stereo not drawn) [Compound 129]	6.00 to 7.00
NS(=O)(=O)c1cccc(OCC(=O)NCC(O)CN2CCc3ccccc3C2)c1 (stereo not drawn) [Compound 131]	5.00 to 6.00
O=C(COc1ccccc1C1CNC1)NCC(O)CN1CCc2ccccc2C1 (stereo not drawn) [Compound 132]	5.00 to 6.00
CN1CCC(c2ccccc2OCC(=O)NCC(O)CN2CCc3ccccc3C2)CC1 (stereo not drawn) [Compound 134]	6.00 to 7.00
CN1CC(c2ccccc2OCC(=O)NCC(O)CN2CCc3ccccc3C2)C1 (stereo not drawn) [Compound 135]	5.00 to 6.00
CN1CCC(c2ccccc2OCC(=O)NCC(O)CN2CCc3ccccc3C2)C1 (stereo not drawn) [Compound 136]	5.00 to 6.00
O=C(COc1ccccc1-c1ncc[nH]1)NCC(O)CN1CCc2ccccc2C1 (stereo not drawn) [Compound 137]	6.00 to 7.00
Cn1ccnc1-c1ccccc1OCC(=O)NCC(O)CN1CCc2ccccc2C1 (stereo not drawn) [Compound 138]	6.00 to 7.00
CS(=O)(=O)Nc1cccnc1OCC(=O)NCC(O)CN1CCc2ccccc2C1 (stereo not drawn) [Compound 140]	5.00 to 6.00
CC(C)(C)OC(=O)Nc1ccccc1OCC(=O)NCC(O)CN1CCc2ccccc2C1 (stereo not drawn) [Compound 141]	5.00 to 6.00
CN(c1cccc(OCC(=O)NCC(O)CN2CCc3ccccc3C2)c1)S(C)(=O)=O (stereo not drawn) [Compound 142]	6.00 to 7.00
CN(C)c1cncc(OCC(=O)NCC(O)CN2CCc3ccccc3C2)c1 (stereo not drawn) [Compound 143]	5.00 to 6.00
Nc1ncccc1OCC(=O)NCC(O)CN1CCc2ccccc2C1 (stereo not drawn) [Compound 145]	5.00 to 6.00
O=C(COc1cccc2c1CCCN2)NCC(O)CN1CCc2ccccc2C1 (stereo not drawn) [Compound 150]	6.00 to 7.00
CN1CCCc2c(OCC(=O)NCC(O)CN3CCc4ccccc4C3)cccc21 (stereo not drawn) [Compound 151]	6.00 to 7.00
O=C(COCc1cccnc1)NCC(O)CN1CCc2ccccc2C1 (stereo not drawn) [Compound 152, N-(3-(3,4-dihydroisoquinolin-2(1H)-yl)-2-hydroxypropyl)-2-(pyridin-3-ylmethoxy)acetamide]	5.00 to 6.00
